Patent publication US8486951B2 (Deciphera Pharmaceuticals, LLC, priority 2008, dated 2013)

Legend:
Assay type in all cases: biochemical
[1] = target: T1, c-MET kinase (Seq. ID no. 2) (Homo sapiens, UniProt P08581); assay: c-MET Kinase Assay (ADP production, pyruvate kinase/lactate dehydrogenase coupled); conditions: read-out: cMET Enzyme Assay
T1 construct: purchased Invitrogen PV3143
Protocol: In this assay, the oxidation of NADH (thus the decrease at A340 nm) was continuously monitored spectrophometrically. […] Test compounds were incubated with C-Met (Seq. ID no. 2) and other reaction reagents at 22° C. for 0.5 h before ATP (100 μM) was added to start the reaction. The absorption at 340 nm was monitored continuously for 2 hours at 30° C. on Polarstar Optima plate reader (BMG). The reaction rate was calculated using the 1.0 to 2.0 h time frame. Percent inhibition was obtained by comparison of reaction rate with that of a control (i.e. with no test compound). IC50 values were calculated from a series of percent inhibition values determined at a range of inhibitor concentrations using software routines as implemented in the GraphPad Prism software package.

[2] = target: KDR kinase (Seq ID No. 3) (Homo sapiens, UniProt P35968, DEL940-989/E990V); assay: KDR Kinase Assay (assays K1, K2, K3); conditions: assay variant K1, K2 or K3 not stated; read-out: KDR Enzyme Assay
Chain of KDR kinase (Seq ID No. 3) (P35968 with tags, fused parts or gaps DEL940-989/E990V): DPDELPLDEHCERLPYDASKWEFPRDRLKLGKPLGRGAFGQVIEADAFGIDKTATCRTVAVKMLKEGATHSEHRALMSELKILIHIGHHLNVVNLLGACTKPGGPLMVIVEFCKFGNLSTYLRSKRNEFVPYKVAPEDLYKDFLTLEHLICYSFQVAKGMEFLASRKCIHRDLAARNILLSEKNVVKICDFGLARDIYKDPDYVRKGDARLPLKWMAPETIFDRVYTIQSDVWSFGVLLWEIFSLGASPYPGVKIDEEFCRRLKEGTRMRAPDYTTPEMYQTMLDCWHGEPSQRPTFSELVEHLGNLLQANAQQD

FMS kinase = target: T2, FMS kinase (Homo sapiens, UniProt P07333); assay: FMS Kinase Assay; conditions: read-out: FMS Enzyme Assay
T2 construct: purchased Invitrogen or Millipore
T2 sequence (P07333 20-972): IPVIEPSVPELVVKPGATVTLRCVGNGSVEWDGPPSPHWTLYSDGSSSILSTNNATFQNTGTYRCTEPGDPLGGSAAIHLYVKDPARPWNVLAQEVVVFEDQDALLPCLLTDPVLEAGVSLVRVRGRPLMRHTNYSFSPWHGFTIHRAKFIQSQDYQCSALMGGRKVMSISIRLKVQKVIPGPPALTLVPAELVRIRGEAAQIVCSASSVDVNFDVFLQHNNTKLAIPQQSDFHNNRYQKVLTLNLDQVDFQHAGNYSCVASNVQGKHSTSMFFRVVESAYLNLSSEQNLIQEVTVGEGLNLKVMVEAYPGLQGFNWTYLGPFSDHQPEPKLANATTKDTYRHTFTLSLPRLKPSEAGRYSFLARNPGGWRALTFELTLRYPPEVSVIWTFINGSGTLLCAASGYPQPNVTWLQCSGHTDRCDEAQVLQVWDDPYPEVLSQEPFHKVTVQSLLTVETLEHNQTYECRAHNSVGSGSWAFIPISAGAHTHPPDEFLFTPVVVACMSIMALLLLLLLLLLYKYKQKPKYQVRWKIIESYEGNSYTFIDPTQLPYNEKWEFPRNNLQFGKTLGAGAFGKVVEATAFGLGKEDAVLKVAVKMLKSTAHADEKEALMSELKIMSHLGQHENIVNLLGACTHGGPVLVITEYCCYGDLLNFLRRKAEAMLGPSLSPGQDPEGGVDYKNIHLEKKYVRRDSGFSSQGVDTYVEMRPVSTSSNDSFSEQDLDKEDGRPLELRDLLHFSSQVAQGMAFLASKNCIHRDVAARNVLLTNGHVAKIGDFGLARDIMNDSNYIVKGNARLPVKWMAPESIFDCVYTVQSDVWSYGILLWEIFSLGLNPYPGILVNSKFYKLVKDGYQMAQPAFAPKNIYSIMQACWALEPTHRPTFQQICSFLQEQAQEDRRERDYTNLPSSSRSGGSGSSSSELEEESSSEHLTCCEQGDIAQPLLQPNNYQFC
Protocol: (§1) In this assay, the oxidation of NADH (thus the decrease at A340 nm) was continuously monitored spectrophometrically. The reaction mixture (100 μl) contained FMS (purchased from Invitrogen or Millipore, 6 nM), polyE4Y (1 mg/ml), MgCl2 (10 mM), pyruvate kinase (4 units), lactate dehydrogenase (0.7 units), phosphoenol pyruvate (1 mM) and NADH (0.28 mM) and ATP (500 μM) in a 90 mM Tris buffer containing 0.2% octyl-glucoside and 1% DMSO, pH 7.5. The inhibition reaction was started by mixing serial diluted test compound with the above reaction mixture. The absorption at 340 nm was monitored continuously for 4 hours at 30° C. on a Polarstar Optima or Synergy 2 plate reader. The reaction rate was calculated using the 2 to 3 h time frame. Percent inhibition was obtained by comparison of reaction rate with that of a control (i.e. with no test compound). IC50 values were calculated from a series of percent inhibition values determined at a range of inhibitor concentrations using software routines as implemented in the GraphPad Prism software package.

PDGFRα kinase = target: T3, PDGFRα kinase (Homo sapiens, UniProt P16234); assay: PDGFRα Kinase Assay; conditions: read-out: PDGFRa Enzyme Assay
T3 construct: purchased Invitrogen
T3 sequence (P16234 24-1089): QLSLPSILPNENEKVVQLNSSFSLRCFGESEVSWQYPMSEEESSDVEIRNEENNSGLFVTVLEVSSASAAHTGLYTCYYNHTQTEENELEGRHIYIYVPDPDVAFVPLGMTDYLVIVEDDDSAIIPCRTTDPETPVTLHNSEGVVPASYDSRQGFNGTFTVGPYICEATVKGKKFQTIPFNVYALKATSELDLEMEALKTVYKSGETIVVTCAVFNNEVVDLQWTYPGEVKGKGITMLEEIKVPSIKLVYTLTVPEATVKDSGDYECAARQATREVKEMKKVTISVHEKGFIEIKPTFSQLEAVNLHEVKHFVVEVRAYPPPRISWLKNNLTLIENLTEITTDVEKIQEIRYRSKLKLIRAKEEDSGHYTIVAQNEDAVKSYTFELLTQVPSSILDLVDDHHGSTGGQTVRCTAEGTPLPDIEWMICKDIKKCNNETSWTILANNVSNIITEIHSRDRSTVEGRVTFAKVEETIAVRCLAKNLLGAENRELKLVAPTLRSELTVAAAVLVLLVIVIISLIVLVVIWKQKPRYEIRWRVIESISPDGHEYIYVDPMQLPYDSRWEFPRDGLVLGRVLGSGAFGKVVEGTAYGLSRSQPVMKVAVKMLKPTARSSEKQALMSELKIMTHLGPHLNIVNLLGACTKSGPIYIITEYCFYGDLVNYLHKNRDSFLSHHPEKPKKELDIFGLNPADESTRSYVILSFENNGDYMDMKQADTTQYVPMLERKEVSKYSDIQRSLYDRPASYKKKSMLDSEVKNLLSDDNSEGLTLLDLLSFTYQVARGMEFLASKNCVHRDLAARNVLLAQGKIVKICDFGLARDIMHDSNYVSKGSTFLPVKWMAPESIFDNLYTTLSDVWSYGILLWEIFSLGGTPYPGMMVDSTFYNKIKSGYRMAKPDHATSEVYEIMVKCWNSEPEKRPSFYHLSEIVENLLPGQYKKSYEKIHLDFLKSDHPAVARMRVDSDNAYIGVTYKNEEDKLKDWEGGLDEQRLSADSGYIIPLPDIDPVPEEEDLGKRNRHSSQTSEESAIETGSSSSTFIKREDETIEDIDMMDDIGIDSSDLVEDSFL
Protocol: as §1, with “Activity of PDGFRα kinase was determined by following the production of ADP from the kinase reaction through coupling with the pyruvate kinase/lactate dehydrogenase system. In” for “In”, “PDGFRα (Invitrogen, 10” for “FMS (purchased from Invitrogen or Millipore, 6”

PDGFRβ = target: T4, PDGFRβ (Homo sapiens, UniProt P09619); assay: PDGFRβ Kinase Assay; conditions: read-out: PDGFRb Enzyme Assay
T4 construct: purchased Invitrogen
T4 sequence (P09619 33-1106): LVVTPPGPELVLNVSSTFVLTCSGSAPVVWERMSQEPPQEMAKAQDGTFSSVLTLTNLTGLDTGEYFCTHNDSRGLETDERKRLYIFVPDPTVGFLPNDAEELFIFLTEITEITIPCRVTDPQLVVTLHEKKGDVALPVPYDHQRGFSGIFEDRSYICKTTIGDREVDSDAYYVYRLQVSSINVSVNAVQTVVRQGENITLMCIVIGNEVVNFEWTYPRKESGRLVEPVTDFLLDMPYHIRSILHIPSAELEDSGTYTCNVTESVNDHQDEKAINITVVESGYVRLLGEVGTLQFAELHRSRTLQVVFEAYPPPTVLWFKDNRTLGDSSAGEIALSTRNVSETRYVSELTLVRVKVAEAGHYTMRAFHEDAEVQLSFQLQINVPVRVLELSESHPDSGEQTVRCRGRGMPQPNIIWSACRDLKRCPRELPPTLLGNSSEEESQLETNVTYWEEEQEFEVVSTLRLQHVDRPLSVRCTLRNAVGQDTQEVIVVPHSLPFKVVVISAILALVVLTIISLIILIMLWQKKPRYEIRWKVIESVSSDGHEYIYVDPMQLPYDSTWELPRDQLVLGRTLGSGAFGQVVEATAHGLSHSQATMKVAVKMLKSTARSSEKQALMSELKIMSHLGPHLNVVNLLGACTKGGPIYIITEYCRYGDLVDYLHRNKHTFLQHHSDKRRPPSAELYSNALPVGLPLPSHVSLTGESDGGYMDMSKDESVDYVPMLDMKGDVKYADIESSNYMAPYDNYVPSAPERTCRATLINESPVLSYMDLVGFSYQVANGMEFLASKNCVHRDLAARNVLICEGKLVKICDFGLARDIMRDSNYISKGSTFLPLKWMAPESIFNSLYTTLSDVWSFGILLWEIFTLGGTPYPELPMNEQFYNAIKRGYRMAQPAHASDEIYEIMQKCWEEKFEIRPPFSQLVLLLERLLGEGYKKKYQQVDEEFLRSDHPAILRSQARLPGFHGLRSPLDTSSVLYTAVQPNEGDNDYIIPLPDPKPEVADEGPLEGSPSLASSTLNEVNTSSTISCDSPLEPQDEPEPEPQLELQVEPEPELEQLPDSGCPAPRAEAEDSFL

[3] = target: T5, c-KIT kinase (Seq. ID no. 1) (Homo sapiens, UniProt P10721); assay: c-KIT kinase Assay (ADP production, pyruvate kinase/lactate dehydrogenase coupled); conditions: read-out: cKIT Enzyme Assay
T5 construct: purchased ProQinase
T5 sequence (P10721 with tags, fused parts or gaps): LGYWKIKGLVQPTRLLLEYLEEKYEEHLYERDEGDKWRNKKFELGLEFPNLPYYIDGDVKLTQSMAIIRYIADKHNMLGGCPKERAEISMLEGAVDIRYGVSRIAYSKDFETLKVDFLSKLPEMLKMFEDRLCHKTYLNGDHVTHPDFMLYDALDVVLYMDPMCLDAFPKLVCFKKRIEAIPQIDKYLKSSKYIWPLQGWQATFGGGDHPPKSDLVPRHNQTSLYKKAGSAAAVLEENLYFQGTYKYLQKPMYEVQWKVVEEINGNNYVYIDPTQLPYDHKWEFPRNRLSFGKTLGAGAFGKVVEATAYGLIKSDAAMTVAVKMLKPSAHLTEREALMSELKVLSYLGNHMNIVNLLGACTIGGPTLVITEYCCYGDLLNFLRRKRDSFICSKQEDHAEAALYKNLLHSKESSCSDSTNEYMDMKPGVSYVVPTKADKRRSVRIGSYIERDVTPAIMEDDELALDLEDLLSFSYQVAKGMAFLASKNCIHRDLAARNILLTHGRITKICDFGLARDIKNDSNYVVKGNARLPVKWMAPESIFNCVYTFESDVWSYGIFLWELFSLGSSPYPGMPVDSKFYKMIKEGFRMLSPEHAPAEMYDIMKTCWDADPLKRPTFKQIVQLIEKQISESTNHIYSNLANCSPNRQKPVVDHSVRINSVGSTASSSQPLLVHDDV
Protocol: In this assay, the oxidation of NADH (thus the decrease at A340 nm) was continuously monitored spectrophometrically. […] The absorption at 340 nm was monitored continuously for 0.5 hours at 30° C. on Polarstar Optima plate reader (BMG). The reaction rate was calculated using the 0 to 0.5 h time frame. Percent inhibition was obtained by comparison of reaction rate with that of a control (i.e. with no test compound). IC50 values were calculated from a series of percent inhibition values determined at a range of inhibitor concentrations using software routines as implemented in the GraphPad Prism software package.

T1 sequence (P08581 with tags, fused parts or gaps): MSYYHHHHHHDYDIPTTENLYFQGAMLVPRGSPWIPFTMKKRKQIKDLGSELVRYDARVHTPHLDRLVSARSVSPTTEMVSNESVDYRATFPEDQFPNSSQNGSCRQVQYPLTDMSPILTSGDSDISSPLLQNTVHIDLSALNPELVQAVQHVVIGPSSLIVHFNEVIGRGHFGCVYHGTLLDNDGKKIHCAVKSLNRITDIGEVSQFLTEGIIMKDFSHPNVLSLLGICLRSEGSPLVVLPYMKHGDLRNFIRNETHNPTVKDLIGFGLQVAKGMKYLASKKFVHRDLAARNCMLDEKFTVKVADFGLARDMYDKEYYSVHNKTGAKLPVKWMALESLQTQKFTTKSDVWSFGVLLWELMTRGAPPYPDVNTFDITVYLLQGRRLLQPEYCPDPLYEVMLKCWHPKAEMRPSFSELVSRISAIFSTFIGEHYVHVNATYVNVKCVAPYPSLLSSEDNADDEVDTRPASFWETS

| SMILES | IC50 [1] | IC50 [2] | also measured |
| --- | --- | --- | --- |
| CC[C@H](NC(=O)C1(C(=O)Nc2ccc(Oc3ccnc(-c4cnn(C)c4)c3)c(F)c2)CC1)c1ccc(F)cc1 [Example 34, N-(3-fluoro-4-(2-(1-methyl-1H-pyrazol-4-yl)pyridin-4-yloxy)phenyl)-N′-((S)-1-(4-fluorophenyl)propyl)cyclopropane-1,1-dicarboxamide] | < 2 µM | – | – |
| Cn1cc(-c2cc(Oc3ccc(NC(=O)C4(C(=O)Nc5ccc(F)cc5)CC4)cn3)ccn2)cn1 [Example 38, N-(4-fluorophenyl)-N′-(6-(2-(1-methyl-1H-pyrazol-4-yl)pyridin-4-yloxy)pyridin-3-yl)cyclopropane-1,1-dicarboxamide] | < 2 µM | < 10 µM | IC50 (FMS kinase): < 10 µM |
| O=C(Cc1ccc(F)cc1)NC(=O)Nc1ccc(Oc2ccnc(-c3nc(C(F)(F)F)c[nH]3)c2)cc1 [Example 39, 1-(2-(4-fluorophenyl)acetyl)-3-(4-(2-(4-(trifluoromethyl)-1,1-imidazol-2-yl)pyridin-4-yloxy)phenyl)urea] | – | – | IC50 (PDGFRα kinase): < 0.2 µM; IC50 (PDGFRβ): < 2 µM |
| Cc1cc(-c2cc(Oc3ccc(NC(=O)C4(C(=O)Nc5ccc(F)cc5)CC4)c(F)c3)ccn2)on1 [Example 59, N-(2-fluoro-4-(2-(3-methylisoxazol-5-yl)pyridin-4-yloxy)phenyl)-N′-(4-fluorophenyl)cyclopropane-1,1-dicarboxamide] | < 0.2 µM | < 10 µM | IC50 (FMS kinase): < 0.2 µM |
| Cn1cc(-c2cc(Oc3ccc(NC(=O)C4(C(=O)Nc5ccc(F)c(C#N)c5)CC4)c(F)c3)ccn2)cn1 [Example 26, N-(3-cyano-4-fluorophenyl)-N′-(2-fluoro-4-(2-(1-methyl-1H-pyrazol-4-yl)pyridin-4-yloxy)phenyl)cyclopropane-1,1-dicarboxamide] | < 10 µM | – | – |
| O=C(Nc1ccc(F)cc1)C1(C(=O)Nc2ccc(Oc3ccnc(-c4c[nH]nn4)c3)cc2F)CC1 [Example 60, N-(4-(2-(1H-1,2,3-triazol-4-yl)pyridin-4-yloxy)-2-fluorophenyl)-N′-(4-fluorophenyl)cyclopropane-1,1-dicarboxamide] | < 2 µM | – | – |
| Cn1cc(-c2cc(Oc3ccc(NC(=O)C4(C(=O)Nc5ccc(F)cc5)CC4)c(F)c3F)ccn2)cn1 [Example 1, N-(2,3-difluoro-4-(2-(1-methyl-1H-pyrazol-4-yl)pyridin-4-yloxy)phenyl)-N′-(4-fluorophenyl)cyclopropane-1,1-dicarboxamide] | < 0.2 µM | < 2 µM | IC50 [3]: < 2 µM; IC50 (PDGFRα kinase): < 0.2 µM; IC50 (PDGFRβ): < 2 µM |
| Cn1cc(-c2cc(Oc3ccc(NC(=O)C4(C(=O)Nc5ccc(C(F)(F)F)cc5)CC4)c(F)c3)ccn2)cn1 [Example 25, N-(2-fluoro-4-(2-(1-methyl-1H-pyrazol-4-yl)pyridin-4-yloxy)phenyl)-N′-(4-(trifluoromethyl)phenyl)cyclopropane-1,1-dicarboxamide] | < 2 µM | – | – |
| COC[C@H](NC(=O)C1(C(=O)Nc2ccc(Oc3ccnc(-c4cnn(C)c4)c3)c(F)c2)CC1)c1ccc(F)cc1 [Example 36, N-(3-fluoro-4-(2-(1-methyl-1H-pyrazol-4-yl)pyridin-4-yloxy)phenyl)-N′((R)-1-(4-fluorophenyl)-2-methoxyethyl)cyclopropane-1,1-dicarboxamide] | < 2 µM | – | – |
| Cn1cc(-c2cc(Oc3ccc(NC(=O)C4(C(=O)Nc5cccs5)CC4)c(F)c3)ccn2)cn1 [Example 35, N-(2-fluoro-4-(2-(1-methyl-1H-pyrazol-4-yl)pyridin-4-yloxy)phenyl)-N′-(thiophen-2-yl)cyclopropane-1,1-dicarboxamide] | < 2 µM | – | – |
| Cn1cc(-c2cc(Oc3ccc(NC(=O)C4(C(=O)NCc5ccccc5)CC4)c(F)c3F)ccn2)cn1 [Example 3, N-benzyl-N′-(2,3-difluoro-4-(2-(1-methyl-1H-pyrazol-4-yl)pyridin-4-yloxy)phenyl)cyclopropane-1,1-dicarboxamide] | – | < 2 µM | IC50 (PDGFRα kinase): < 2 µM; IC50 (PDGFRβ): < 10 µM |
| Cn1cc(-c2cc(Oc3ccc(NC(=O)C4(C(=O)Nc5ccc(F)cc5F)CC4)c(F)c3)ccn2)cn1 [Example 27, N-(2,4-difluorophenyl)-N′-(2-fluoro-4-(2-(1-methyl-1H-pyrazol-4-yl)pyridin-4-yloxy)phenyl)cyclopropane-1,1-dicarboxamide] | < 2 µM | – | – |
| Cn1cc(-c2cc(Oc3ccc(NC(=O)C4(C(=O)Nc5ccc(C#N)cc5)CC4)c(F)c3)ccn2)cn1 [Example 28, N-(4-cyanophenyl)-N′-(2-fluoro-4-(2-(1-methyl-1H-pyrazol-4-yl)pyridin-4-yloxy)phenyl)cyclopropane-1,1-dicarboxamide] | < 10 µM | – | – |
| Cc1cc(F)c(NC(=O)C2(C(=O)Nc3ccc(F)cc3)CC2)cc1Oc1nccc(-c2cn[nH]c2)n1 [Example 54, N-(5-(4-(1H-pyrazol-4-yl)pyrimidin-2-yloxy)-2-fluoro-4-methylphenyl)-N′-(4-fluorophenyl)cyclopropane-1,1-dicarboxamide] | < 10 µM | < 10 µM | IC50 (FMS kinase): < 10 µM |
| Cc1cc(F)c(NC(=O)C2(C(=O)Nc3ccc(F)cc3)CC2)cc1Oc1nccc(-c2cnn(C)c2)n1 [Example 52, N-(2-fluoro-4-methyl-5-(4-(1-methyl-1H-pyrazol-4-yl)pyrimidin-2-yloxy)phenyl)-N′-(4-fluorophenyl)cyclopropane-1,1-dicarboxamide] | < 10 µM | < 10 µM | IC50 (FMS kinase): < 10 µM |
| CN(C(=O)C1(C(=O)Nc2ccc(F)cc2)CC1)c1ccc(Oc2ccnc(-c3cnn(C)c3)c2)c(F)c1 [Example 58, N-(3-fluoro-4-(2-(1-methyl-1H-pyrazol-4-yl)pyridin-4-yloxy)phenyl)-N′-(4-fluorophenyl)-N-methylcyclopropane-1,1-dicarboxamide] | < 10 µM | < 10 µM | IC50 [3]: < 10 µM; IC50 (PDGFRα kinase): < 10 µM |
| C[C@H](NC(=O)C1(C(=O)Nc2ccc(Oc3ccnc(-c4cnn(C)c4)c3)c(F)c2)CC1)c1ccc(F)cc1 [Example 33, N-(3-fluoro-4-(2-(1-methyl-1H-pyrazol-4-yl)pyridin-4-yloxy)phenyl)-N′-((S)-1-(4-fluorophenyl)ethyl)cyclopropane-1,1-dicarboxamide] | < 2 µM | – | – |
| Cn1cc(-c2cc(Oc3ccc(NC(=O)C4(C(=O)Nc5ccc(F)cc5Cl)CC4)c(F)c3)ccn2)cn1 [Example 29, N-(2-chloro-4-fluorophenyl)-N′-(2-fluoro-4-(2-(1-methyl-1H-pyrazol-4-yl)pyridin-4-yloxy)phenyl)cyclopropane-1,1-dicarboxamide] | < 2 µM | – | – |
| Cn1cc(-c2ccnc(Oc3ccc(F)c(NC(=O)C4(C(=O)Nc5ccc(F)cc5)CC4)c3)n2)cn1 [Example 53, N-(2-fluoro-5-(4-(1-methyl-1H-pyrazol-4-yl)pyrimidin-2-yloxy)phenyl)-N′-(4-fluorophenyl)cyclopropane-1,1-dicarboxamide] | < 10 µM | < 10 µM | IC50 (FMS kinase): < 10 µM |
| Cn1cc(-c2cc(Oc3ccc(NC(=O)C4(C(=O)Nc5ccc(F)c(F)c5)CC4)c(F)c3)ccn2)cn1 [Example 24, N-(3,4-difluorophenyl)-N′-(2-fluoro-4-(2-(1-methyl-1H-pyrazol-4-yl)pyridin-4-yloxy)phenyl)cyclopropane-1,1-dicarboxamide] | < 2 µM | – | – |
